Structures can show the parent of a compound that is named as a salt.

Series [1] deals with herpes simplex 1 virus (HSV1). Description: Plaque Assay 1 (plaque counting). Type of series: cell-based. The note with it: for plaques seen in plaque assay: concentration and dilution not stated. As for the experimental part: The compounds prepared in Examples 1-4 were tested in a plaque assay using herpes simplex 1 virus (HSV1), and acyclovir (ACV) as a reference compound. […] The plaque counting results obtained when using the compounds of Examples 1 and 4, and the reference compound ACV, respectively, are shown in Tables 1-3.

Series [2] relates to HSV-1. The note with it: in vitro; cited from earlier work.

As usually defined, the melting point is the temperature, or range, at which the solid turns liquid. Take `Br.C=CC[N+](C)(C)CCn1c2ccccc2c2nc3cc(C)c(C)cc3nc21`: the melting point was in the range of 248 to 252 °C.
For the molecule `Nc1nc2c(ncn2COCCO)c(=O)[nH]1` [ACV, acyclovir, reference compound], the plaque count in series [1] (compound 1 uM, 10^1 dilution) came out at 15; in series [1] (compound 5 uM, 10^1 dilution) it was 8; in series [1] (compound 5 uM, 10^2 dilution), 1; in series [1] (compound 25 uM, 10^1 dilution) it was 2. For the same molecule, the “selectivity ratio for the inhibitory activity against HSV-1” value in series [2] is given as “about 2000”.
In the case of `Cc1cc2nc3c4ccccc4n(CC[N+](C)(C)C)c3nc2cc1C.[I-]` [Example 1, 2,3-Dimethyl-6-[2-(trimethylamino)ethyl]-6H-indolo[2,3-b]quinoxaline iodide], the plaque count in series [1] (compound 1 uM, 10^1 dilution) is listed as 19; in series [1] (compound 1 uM, 10^2 dilution), 3; in series [1] (compound 1 uM, 10^3 dilution), 1; in series [1] (compound 5 uM, 10^1 dilution) it was 8; in series [1] (compound 5 uM, 10^2 dilution), 2.
`Cc1cc2nc3c4cc(Cl)ccc4n(CC(=O)NCCN(C)C)c3nc2cc1C` [Example 2, 9-chloro-N-[2-(dimethylamino)ethyl]-2,3-dimethyl-6H-Indolo[2,3-b]quinoxaline-6-acetamide]: the “plaques seen in plaque assay” value in series [1] is reported as “no plaques could be seen”.
The same measure, in the same setting: next, `Cc1cc2nc3c4cc(Cl)ccc4n(CC(=S)NCCN(C)C)c3nc2cc1C` [Example 3, 9-chloro-N-[2-(dimethylamino)ethyl]-2,3-dimethyl-6H-Indolo[2,3-b]quinoxaline-6-thioacetamide]: “no plaques could be seen”.
Regarding `Cc1cc2nc3c4ccccc4n(CC[N+](C)(C)C)c3nc2cc1C` [Example 4, 2,3-dimethyl-6-[2-(trimethylamino)ethyl]-6H-indolo[2,3-b]quinoxaline methyl sulfate], the plaque count in series [1] (compound 1 uM, 10^1 dilution) stood at 11; in series [1] (compound 5 uM, 10^1 dilution), 2.
